Structures are written as SMILES.

The subject of one test is tHTT. Briefly: Mutant and total HTT multiplex HTRF assay in Q48 HTT human embryonic stem cell line: tHTT. The test is classed as cell-based. The note with it: Q48 HTT hESC, 48 hours. In a few lines:
(§1)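 Q48 HTT hESCs from HD donors were treated with compound for 48 h at 37 °C after 24 h adherence, then lysed. Lysates were read by multiplex HTRF with N-terminal donor, polyQ (MW1) and post-polyQ (MAB2166) antibodies for 4-6 h at RT. Donor/acceptor ratios give relative mHTT and tHTT; pIC50 reported.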
Background: In TR-FRET formats the signal depends on donor and acceptor labels being close together.

The test system of a further test is mHTT. Kind of test: Mutant and total HTT multiplex HTRF assay in Q48 HTT human embryonic stem cell line: mHTT. The note with it: Q48 HTT hESC, 48 hours. Format: cell-based. In short, it runs like this:
as §1

As to `Cc1nc2cc(-c3ccc(N(C)C4CC(C)(C)NC(C)(C)C4)nn3)c(O)cc2[nH]1` [Compound 54, 2-methyl-5-(6-(methyl(2,2,6,6-tetramethylpiperidin-4-yl)amino)pyridazin-3-yl)-1H-benzo[d]imidazol-6-ol], in the test with tHTT, the “tHTT pIC50” value was 6.753. In the test with mHTT, the “Rating (based on mHTT potency)” value was “*** (a pIC50 value between 6.5 and 7.0 is indicated by three stars (***))”; the “mHTT pIC50” value is on record as 6.728.
For the compound `COc1cc(-c2cnn(C)c2)cc(O)c1-c1ccc(N(C)C2CC(C)(C)NC(C)(C)C2)nn1` [Compound 20, 3-methoxy-2-(6-(methyl(2,2,6,6-tetramethylpiperidin-4-yl)amino)pyridazin-3-yl)-5-(1-methyl-1H-pyrazol-4-yl)phenol], in the test on tHTT, the “tHTT pIC50” value is reported as 7.106. Besides, in the test with mHTT, the “Rating (based on mHTT potency)” value is “**** (a pIC50 value between 7.0 and 7.5 is indicated by four stars (****))”; the “mHTT pIC50” value is on record as 7.22.

Source of the values: US20240216369A1, “THE USE OF A SPLICING MODULATOR FOR A TREATMENT SLOWING PROGRESSION OF HUNTINGTON'S DISEASE” (Novartis AG, priority 2019, published 2024).
